# Measurements from US20250163104A1, “MACROCYCLIC IMMUNOMODULATORS” (priority 2021, published 2025).
# Where a SMILES comes first, the peptide text is derived from it. Bridges are numbered along the chain shown (N, C = ends). [ ]: non-standard residue; d: D form. The star is where a group is joined. Tyr(3,5-F2) = N[C@@H](Cc1cc(F)c(O)c(F)c1)C(=O)O; Tyr(3-Cl) = N[C@@H](Cc1ccc(O)c(Cl)c1)C(=O)O; Bip = N[C@@H](Cc1ccc(-c2ccccc2)cc1)C(=O)O; Phe(3-Me) = Cc1cccc(C[C@H](N)C(=O)O)c1; mTyr = N[C@@H](Cc1cccc(O)c1)C(=O)O; 3Pal = N[C@@H](Cc1cccnc1)C(=O)O; Cha = N[C@@H](CC1CCCCC1)C(=O)O; dDab = NCC[C@@H](N)C(=O)O; Carboxymethyl = O=C(O)C*; Orn = NCCC[C@H](N)C(=O)O; Dab = NCC[C@H](N)C(=O)O; Dap = NC[C@H](N)C(=O)O; Ac3c = NC1(C(=O)O)CC1; Piv = CC(C)(C)C(=O)*
# Target: T1, human PD-1 / PD-L1-Ig binding on Jurkat cell line over-expressing human PD-1 (Jurkat-PD-1) (Homo sapiens, UniProt Q15116)
# T1 construct: expressed in transfected cells; host or cells: Jurkat
# Assay: Jurkat-PD-1 Cell Binding High-Content Screening Assay (CBA)
# Assay type: cell-based
# Details: Jurkat-PD-1 cells, PE-labeled PD-L1-Ig 20 nM final; read-out: Jurkat HPD1_PDL1 IC50
# Outline: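 Read-out: high-content imaging of PE-tagged PD-L1-Ig bound to Jurkat cells overexpressing human PD-1, after fixation with 4% paraformaldehyde and Hoechst 33342 nuclear staining. Ligand was used at 20 nM final for 1 hour, after a 2 h compound exposure at 37° C in serum-containing DMEM.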
# T1 sequence (Q15116 25-288): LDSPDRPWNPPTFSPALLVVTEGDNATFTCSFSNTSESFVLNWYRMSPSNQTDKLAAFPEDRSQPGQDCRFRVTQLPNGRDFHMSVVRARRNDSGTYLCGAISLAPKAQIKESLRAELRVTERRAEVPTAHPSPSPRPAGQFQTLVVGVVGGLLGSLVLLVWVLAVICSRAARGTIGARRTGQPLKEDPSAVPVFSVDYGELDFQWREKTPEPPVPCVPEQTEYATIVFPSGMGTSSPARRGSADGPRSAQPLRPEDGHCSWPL
row,SMILES,IC50 [nM]
1,"CC(C)C[C@H]1NC(=O)[C@H](CCCN)NC(=O)[C@H](C(C)C)NC(=O)[C@H](Cc2ccc(-c3ccccc3)cc2)NC(=O)[C@H](C(C)C)NC(=O)[C@H](Cc2cc(F)c(O)c(F)c2)NC(=O)[C@H](CC(=O)O)NC(=O)[C@H](Cc2ccc(OCC(=O)O)cc2)NC(=O)[C@H](CN)NC(=O)CSC[C@@H](C(=O)N[C@@H](CCN)C(N)=O)NC(=O)[C@H](CCCCN)NC(=O)[C@H](C(C)C)NC(=O)[C@H](CC2CCCCC2)NC(=O)[C@H](CCN)NC1=O [Compound 2034] ({CH2CO}-[Dap]Y(Carboxymethyl)D[Tyr(3,5-F2)]V[Bip]V[Orn][dL][Dab][Cha]VKC[Dab]-NH2; thioether N-14)",84.1
2,Cc1cccc(C[C@@H]2NC(=O)[C@H](CC(=O)O)NC(=O)[C@H](Cc3ccc(OCC(=O)O)cc3)NC(=O)[C@H](CN)NC(=O)CSC[C@@H](C(=O)N[C@@H](CCN)C(N)=O)NC(=O)[C@H](CCCN)NC(=O)[C@H](C(C)C)NC(=O)[C@H](CC3CCCCC3)NC(=O)[C@H](CCNC(=O)C(C)(C)C)NC(=O)[C@@H](CC(C)C)NC(=O)[C@H](CCCN)NC(=O)[C@H](Cc3ccc(O)cc3)NC(=O)[C@H](Cc3ccc(-c4ccccc4)cc3)NC(=O)[C@H](Cc3ccc(O)cc3)NC2=O)c1 [Compound 2036] ({CH2CO}-[Dap]Y(Carboxymethyl)D[Phe(3-Me)]Y[Bip]Y[Orn][dL][Dab](Piv)[Cha]V[Orn]C[Dab]-NH2; thioether N-14),10
3,Cc1cccc(C[C@@H]2NC(=O)[C@H](CC(=O)O)NC(=O)[C@H](Cc3ccc(OCC(=O)O)cc3)NC(=O)[C@H](CN)NC(=O)CSC[C@@H](C(=O)N[C@@H](CCN)C(N)=O)NC(=O)[C@H](CCCN)NC(=O)[C@H](C(C)C)NC(=O)[C@H](CC3CCCCC3)NC(=O)[C@H](Cc3cccnc3)NC(=O)[C@@H](CC(C)C)NC(=O)[C@H](CCCN)NC(=O)[C@H](Cc3ccc(O)cc3)NC(=O)[C@H](Cc3ccc(-c4ccccc4)cc3)NC(=O)[C@H](Cc3ccc(O)cc3)NC2=O)c1 [Compound 2037] ({CH2CO}-[Dap]Y(Carboxymethyl)D[Phe(3-Me)]Y[Bip]Y[Orn][dL][3Pal][Cha]V[Orn]C[Dab]-NH2; thioether N-14),89.7
4,Cc1cccc(C[C@@H]2NC(=O)[C@H](CC(=O)O)NC(=O)[C@H](Cc3ccc(OCC(=O)O)cc3)NC(=O)[C@H](CN)NC(=O)CSC[C@@H](C(=O)N[C@@H](CCN)C(N)=O)NC(=O)[C@H](CCCN)NC(=O)[C@H](C(C)C)NC(=O)[C@H](CC3CCCCC3)NC(=O)[C@H](CCN)NC(=O)[C@@H](CC(C)C)NC(=O)[C@@H](CCN)NC(=O)[C@H](Cc3ccc(O)cc3)NC(=O)[C@H](Cc3ccc(-c4ccccc4)cc3)NC(=O)[C@H](Cc3ccc(O)cc3)NC2=O)c1 [Compound 2039] ({CH2CO}-[Dap]Y(Carboxymethyl)D[Phe(3-Me)]Y[Bip]Y[dDab][dL][Dab][Cha]V[Orn]C[Dab]-NH2; thioether N-14),12.9
5,Cc1cccc(C[C@@H]2NC(=O)[C@H](CC(=O)O)NC(=O)[C@H](Cc3ccc(OCC(=O)O)cc3)NC(=O)[C@H](CCNC(=O)C(C)(C)C)NC(=O)CSC[C@@H](C(=O)N[C@@H](CCN)C(N)=O)NC(=O)[C@H](CCCN)NC(=O)[C@H](C(C)C)NC(=O)[C@H](CC3CCCCC3)NC(=O)[C@H](CCN)NC(=O)[C@@H](CC(C)C)NC(=O)[C@H](CCCN)NC(=O)[C@H](Cc3ccc(O)cc3)NC(=O)[C@H](Cc3ccc(-c4ccccc4)cc3)NC(=O)[C@H](Cc3ccc(O)cc3)NC2=O)c1 [Compound 2040] ({CH2CO}-[Dab](Piv)Y(Carboxymethyl)D[Phe(3-Me)]Y[Bip]Y[Orn][dL][Dab][Cha]V[Orn]C[Dab]-NH2; thioether N-14),4.9
6,Cc1cccc(C[C@@H]2NC(=O)[C@H](CC(=O)O)NC(=O)[C@H](Cc3ccc(OCC(=O)O)cc3)NC(=O)[C@H](Cc3cccnc3)NC(=O)CSC[C@@H](C(=O)N[C@@H](CCN)C(N)=O)NC(=O)[C@H](CCCN)NC(=O)[C@H](C(C)C)NC(=O)[C@H](CC3CCCCC3)NC(=O)[C@H](CCN)NC(=O)[C@@H](CC(C)C)NC(=O)[C@H](CCCN)NC(=O)[C@H](Cc3ccc(O)cc3)NC(=O)[C@H](Cc3ccc(-c4ccccc4)cc3)NC(=O)[C@H](Cc3ccc(O)cc3)NC2=O)c1 [Compound 2041] ({CH2CO}-[3Pal]Y(Carboxymethyl)D[Phe(3-Me)]Y[Bip]Y[Orn][dL][Dab][Cha]V[Orn]C[Dab]-NH2; thioether N-14),4.9
7,Cc1cccc(C[C@@H]2NC(=O)[C@H](CC(=O)O)NC(=O)[C@H](Cc3ccc(OCC(=O)O)cc3)NC(=O)[C@H](CN)NC(=O)CSC[C@@H](C(=O)N[C@@H](CCNC(=O)C(C)(C)C)C(N)=O)NC(=O)[C@H](CCCN)NC(=O)[C@H](C(C)C)NC(=O)[C@H](CC3CCCCC3)NC(=O)[C@H](CCN)NC(=O)[C@@H](CC(C)C)NC(=O)[C@H](CCCN)NC(=O)[C@H](Cc3ccc(O)cc3)NC(=O)[C@H](Cc3ccc(-c4ccccc4)cc3)NC(=O)[C@H](Cc3ccc(O)cc3)NC2=O)c1 [Compound 2042] ({CH2CO}-[Dap]Y(Carboxymethyl)D[Phe(3-Me)]Y[Bip]Y[Orn][dL][Dab][Cha]V[Orn]C[Dab](Piv)-NH2; thioether N-14),6.5
8,Cc1cccc(C[C@@H]2NC(=O)[C@H](CC(=O)O)NC(=O)[C@H](Cc3ccc(OCC(=O)O)cc3)NC(=O)[C@H](CN)NC(=O)CSC[C@@H](C(=O)NC3(C(N)=O)CC3)NC(=O)[C@H](CCCN)NC(=O)[C@H](C(C)C)NC(=O)[C@H](CC3CCCCC3)NC(=O)[C@H](CCN)NC(=O)[C@@H](CC(C)C)NC(=O)[C@H](CCCN)NC(=O)[C@H](Cc3ccc(O)cc3)NC(=O)[C@H](Cc3ccc(-c4ccccc4)cc3)NC(=O)[C@H](Cc3ccc(O)cc3)NC2=O)c1 [Compound 2043] ({CH2CO}-[Dap]Y(Carboxymethyl)D[Phe(3-Me)]Y[Bip]Y[Orn][dL][Dab][Cha]V[Orn]C[Ac3c]-NH2; thioether N-14),16.8
9,CCNC(=O)[C@H](CCN)NC(=O)[C@@H]1CSCC(=O)N[C@@H](CN)C(=O)N[C@@H](Cc2ccc(OCC(=O)O)cc2)C(=O)N[C@@H](CC(=O)O)C(=O)N[C@@H](Cc2cccc(O)c2)C(=O)N[C@@H](C(C)C)C(=O)N[C@@H](Cc2ccc(-c3ccccc3)cc2)C(=O)N[C@@H](Cc2ccc(O)cc2)C(=O)N[C@@H](CCCN)C(=O)N[C@H](CC(C)C)C(=O)N[C@@H](CCN)C(=O)N[C@@H](CC2CCCCC2)C(=O)N[C@@H](C(C)C)C(=O)N[C@@H](CCCN)C(=O)N1 [Compound 2046] ({CH2CO}-[Dap]Y(Carboxymethyl)D[mTyr]V[Bip]Y[Orn][dL][Dab][Cha]V[Orn]C[Dab]-NHEt; thioether N-14),16.7

# Now from value to compound:
row,IC50 [nM],SMILES
1,18.4,CC(C)C[C@H]1NC(=O)[C@H](CCCN)NC(=O)[C@H](C(C)C)NC(=O)[C@H](Cc2ccc(-c3ccccc3)cc2)NC(=O)[C@H](C(C)C)NC(=O)[C@H](Cc2ccc(O)cc2)NC(=O)[C@H](CC(=O)O)NC(=O)[C@H](Cc2ccc(OCC(=O)O)cc2)NC(=O)[C@H](CN)NC(=O)CSC[C@@H](C(=O)N[C@@H](CCN)C(N)=O)NC(=O)[C@H](CCCCN)NC(=O)[C@H](C(C)C)NC(=O)[C@H](CC2CCCCC2)NC(=O)[C@H](CCN)NC1=O [Compound 2033] ({CH2CO}-[Dap]Y(Carboxymethyl)DYV[Bip]V[Orn][dL][Dab][Cha]VKC[Dab]-NH2; thioether N-14)
2,15,CC(C)C[C@H]1NC(=O)[C@H](CCCN)NC(=O)[C@H](C(C)C)NC(=O)[C@H](Cc2ccc(-c3ccccc3)cc2)NC(=O)[C@H](C(C)C)NC(=O)[C@H](Cc2ccc(O)c(Cl)c2)NC(=O)[C@H](CC(=O)O)NC(=O)[C@H](Cc2ccc(OCC(=O)O)cc2)NC(=O)[C@H](CN)NC(=O)CSC[C@@H](C(=O)N[C@@H](CCN)C(N)=O)NC(=O)[C@H](CCCCN)NC(=O)[C@H](C(C)C)NC(=O)[C@H](CC2CCCCC2)NC(=O)[C@H](CCN)NC1=O [Compound 2035] ({CH2CO}-[Dap]Y(Carboxymethyl)D[Tyr(3-Cl)]V[Bip]V[Orn][dL][Dab][Cha]VKC[Dab]-NH2; thioether N-14)
3,19.4,Cc1cccc(C[C@@H]2NC(=O)[C@H](CC(=O)O)NC(=O)[C@H](Cc3ccc(OCC(=O)O)cc3)NC(=O)[C@H](CN)NC(=O)CSC[C@@H](C(=O)N[C@@H](CCN)C(N)=O)NC(=O)[C@H](CCCN)NC(=O)[C@H](C(C)C)NC(=O)[C@H](CC3CCCCC3)NC(=O)[C@H](CCN)NC(=O)[C@@H](CC(C)C)NC(=O)[C@H](CCNC(=O)C(C)(C)C)NC(=O)[C@H](Cc3ccc(O)cc3)NC(=O)[C@H](Cc3ccc(-c4ccccc4)cc3)NC(=O)[C@H](Cc3ccc(O)cc3)NC2=O)c1 [Compound 2038] ({CH2CO}-[Dap]Y(Carboxymethyl)D[Phe(3-Me)]Y[Bip]Y[Dab](Piv)[dL][Dab][Cha]V[Orn]C[Dab]-NH2; thioether N-14)
4,9.7,Cc1cccc(C[C@@H]2NC(=O)[C@H](CC(=O)O)NC(=O)[C@H](Cc3ccc(OCC(=O)O)cc3)NC(=O)[C@H](CN)NC(=O)CSC[C@@H](C(=O)N[C@@H](CCN)C(N)=O)NC(=O)[C@H](CCNC(=O)C(C)(C)C)NC(=O)[C@H](C(C)C)NC(=O)[C@H](CC3CCCCC3)NC(=O)[C@H](CCN)NC(=O)[C@@H](CC(C)C)NC(=O)[C@H](CCCN)NC(=O)[C@H](Cc3ccc(O)cc3)NC(=O)[C@H](Cc3ccc(-c4ccccc4)cc3)NC(=O)[C@H](Cc3ccc(O)cc3)NC2=O)c1 [Compound 2044] ({CH2CO}-[Dap]Y(Carboxymethyl)D[Phe(3-Me)]Y[Bip]Y[Orn][dL][Dab][Cha]V[Dab](Piv)C[Dab]-NH2; thioether N-14)
5,10.5,Cc1cccc(C[C@@H]2NC(=O)[C@H](CC(=O)O)NC(=O)[C@H](Cc3ccc(OCC(=O)O)cc3)NC(=O)[C@H](CN)NC(=O)CSC[C@@H](C(=O)N[C@@H](CCN)C(N)=O)NC(=O)[C@@H](CCN)NC(=O)[C@H](C(C)C)NC(=O)[C@H](CC3CCCCC3)NC(=O)[C@H](CCN)NC(=O)[C@@H](CC(C)C)NC(=O)[C@H](CCCN)NC(=O)[C@H](Cc3ccc(O)cc3)NC(=O)[C@H](Cc3ccc(-c4ccccc4)cc3)NC(=O)[C@H](Cc3ccc(O)cc3)NC2=O)c1 [Compound 2045] ({CH2CO}-[Dap]Y(Carboxymethyl)D[Phe(3-Me)]Y[Bip]Y[Orn][dL][Dab][Cha]V[dDab]C[Dab]-NH2; thioether N-14)
